Active and inactive are the calls of the source. The calls are words filed in the database; no cut-off is given here.
Assays:
[1] = species on record: Rattus norvegicus; test: Inhibition of the rat conditioned avoidance response, CAR (Tranquilizing activity, peroral); type: functional; conditions: po
[2] = tested on: Rattus norvegicus; test: In vivo inhibition of apomorphine (APO) induced stereotypy in rats (po); type: functional
[3] = target: D(2) dopamine receptor (Rattus norvegicus, UniProt P61169); test: Ability to inhibit [3H]spiperone binding to Dopamine receptor D2 in rat corpus striatum; type: tissue-based
[4] = tested on: Rattus norvegicus; test: Ability to reverse trifluoperazine-induced catalepsy in rat (po); IA = Compound induced catalepsy; type: functional, organism-based
[5] = tested on: Rattus norvegicus; test: Induction of catalepsy in rat (po)
[6] = target: T1, Adrenergic receptor alpha-1 (Rattus norvegicus, UniProt P15823+P23944+P43140); test: Ability to inhibit [3H]WB-4101 binding to rat cortical alpha-1-adrenergic receptor; type: protein assay
T1 sequence (P15823 whole entry): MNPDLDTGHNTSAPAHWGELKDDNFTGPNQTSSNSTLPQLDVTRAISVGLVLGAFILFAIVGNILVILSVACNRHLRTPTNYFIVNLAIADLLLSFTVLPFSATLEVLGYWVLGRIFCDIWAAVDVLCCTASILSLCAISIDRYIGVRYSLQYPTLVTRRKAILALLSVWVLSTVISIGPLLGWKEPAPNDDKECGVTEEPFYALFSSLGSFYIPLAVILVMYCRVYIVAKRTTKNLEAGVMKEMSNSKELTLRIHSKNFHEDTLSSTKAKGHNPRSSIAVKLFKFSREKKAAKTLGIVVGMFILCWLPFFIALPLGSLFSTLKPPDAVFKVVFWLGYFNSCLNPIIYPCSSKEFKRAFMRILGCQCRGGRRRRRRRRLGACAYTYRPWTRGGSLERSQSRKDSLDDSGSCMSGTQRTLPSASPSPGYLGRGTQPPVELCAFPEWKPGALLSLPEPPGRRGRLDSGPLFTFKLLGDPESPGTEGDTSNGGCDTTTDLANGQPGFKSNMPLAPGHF
T1 sequence (P23944 whole entry): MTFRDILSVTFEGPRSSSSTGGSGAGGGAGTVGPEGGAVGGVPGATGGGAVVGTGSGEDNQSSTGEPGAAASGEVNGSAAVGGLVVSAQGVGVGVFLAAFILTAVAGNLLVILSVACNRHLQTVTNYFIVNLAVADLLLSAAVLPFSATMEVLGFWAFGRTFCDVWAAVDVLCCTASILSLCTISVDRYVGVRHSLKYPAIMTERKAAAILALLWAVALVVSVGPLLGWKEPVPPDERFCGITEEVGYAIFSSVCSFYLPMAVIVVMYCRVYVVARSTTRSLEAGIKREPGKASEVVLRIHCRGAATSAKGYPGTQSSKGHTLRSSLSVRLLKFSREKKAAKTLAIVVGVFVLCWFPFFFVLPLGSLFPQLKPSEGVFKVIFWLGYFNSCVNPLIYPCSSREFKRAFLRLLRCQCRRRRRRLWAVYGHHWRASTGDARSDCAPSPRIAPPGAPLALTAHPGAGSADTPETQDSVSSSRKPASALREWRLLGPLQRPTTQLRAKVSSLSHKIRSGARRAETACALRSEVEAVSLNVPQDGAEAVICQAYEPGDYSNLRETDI
T1 sequence (P43140 whole entry): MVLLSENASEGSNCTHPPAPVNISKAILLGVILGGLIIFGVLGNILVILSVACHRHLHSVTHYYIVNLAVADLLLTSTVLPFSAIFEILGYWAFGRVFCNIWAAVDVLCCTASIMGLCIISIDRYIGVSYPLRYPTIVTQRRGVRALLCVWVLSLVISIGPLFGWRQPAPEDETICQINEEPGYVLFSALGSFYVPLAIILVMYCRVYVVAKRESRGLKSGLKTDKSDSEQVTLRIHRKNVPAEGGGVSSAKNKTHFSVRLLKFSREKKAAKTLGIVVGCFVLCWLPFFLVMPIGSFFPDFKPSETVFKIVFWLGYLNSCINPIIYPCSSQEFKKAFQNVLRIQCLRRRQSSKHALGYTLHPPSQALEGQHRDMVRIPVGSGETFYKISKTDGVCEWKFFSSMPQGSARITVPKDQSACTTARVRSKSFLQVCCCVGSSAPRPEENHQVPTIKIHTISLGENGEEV

[7] = tested on: Rattus norvegicus; test: Ability to reverse trifluoperazine-induced catalepsy in rat (po); type: functional

Sequence of D(2) dopamine receptor (P61169 whole entry): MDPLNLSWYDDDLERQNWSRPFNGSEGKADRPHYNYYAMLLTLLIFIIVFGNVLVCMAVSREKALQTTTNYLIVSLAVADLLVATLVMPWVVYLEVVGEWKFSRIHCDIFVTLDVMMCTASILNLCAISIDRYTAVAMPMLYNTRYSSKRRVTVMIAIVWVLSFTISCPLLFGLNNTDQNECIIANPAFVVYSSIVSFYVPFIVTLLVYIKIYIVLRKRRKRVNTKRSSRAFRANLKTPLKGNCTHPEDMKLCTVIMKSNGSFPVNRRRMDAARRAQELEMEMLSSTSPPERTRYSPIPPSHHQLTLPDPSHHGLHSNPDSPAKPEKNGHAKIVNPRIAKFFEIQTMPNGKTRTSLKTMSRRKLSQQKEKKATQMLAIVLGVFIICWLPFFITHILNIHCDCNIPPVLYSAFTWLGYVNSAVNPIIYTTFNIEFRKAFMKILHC

| SMILES | ED50 [1] [mg/kg] | ED50 [2] [mg/kg] | IC50 [3] [nM] | ED50 [4] | ED50 [5] [mg/kg] | IC50 [6] [nM] | ED50 [7] [mg/kg] |
| --- | --- | --- | --- | --- | --- | --- | --- |
| COc1cccc(N2CCN(CCCCN3C(=O)SC4(CCCC4)C3=O)CC2)n1 | 35.9 | > 100 | > 1000 | inactive |  |  |  |
| Cc1cccnc1N1CCN(CCCCN2C(=O)CC3(CCCC3)CC2=O)CC1 | 46.4 |  | 476 |  | > 186 |  |  |
| CC1(C)CC(=O)N(CCCCN2CCN(c3ncccc3-c3ccccc3)CC2)C(=O)C1 | 67.6 |  | 109 |  | 90.8 |  |  |
| O=C1COCC(=O)N1CCCCN1CCN(c2ncccc2-c2ccccc2)CC1 | > 100 | > 63 | > 41 |  |  | 16 |  |
| COC(=O)c1cccnc1N1CCN(CCCCN2C(=O)CC(C)(C)CC2=O)CC1 | 57 | 69.2 | > 1000 |  | 228 | 36.9 |  |
| COc1cccnc1N1CCN(CCCCN2C(=O)SC3(CCCC3)C2=O)CC1 | 18.8 | < 57 | 79 | inactive |  |  |  |
| O=C1COCC(=O)N1CCCCN1CCN(c2ncccc2Cl)CC1 | 59.8 | > 63 | > 1000 |  |  | 16 |  |
| Nc1cccnc1N1CCN(CCCCN2C(=O)SC3(CCCC3)C2=O)CC1 | > 100 |  | > 1000 | inactive |  |  |  |
| Cc1cccnc1N1CCN(CCCCN2C(=O)CC(C)(C)CC2=O)CC1 | 42.1 | > 100 | > 1000 |  | > 200 |  |  |
| O=C1COCC(=O)N1CCCCN1CCN(c2ncccc2[N+](=O)[O-])CC1 | 55 |  | > 1000 |  | 220 | 38.3 |  |
| O=Cc1cccnc1N1CCN(CCCCN2C(=O)COCC2=O)CC1 | > 100 |  | > 1000 |  |  |  |  |
| Cc1cccnc1N1CCN(CCCCN2C(=O)SC3(CCCC3)C2=O)CC1 | 46.4 | > 50 | 630 | inactive |  |  |  |
| N#Cc1cccnc1N1CCN(CCCCN2C(=O)CSC2=O)CC1 | 15.8 | > 100 | > 1000 | inactive |  | 39 |  |
| COc1cccc(N2CCN(CCCCN3C(=O)CC(C)(C)CC3=O)CC2)n1 | 11.9 | 76.2 | > 1000 |  | 48 | 68 |  |
| Cc1nnc(-c2cccnc2N2CCN(CCCCN3C(=O)CC4(CCCC4)CC3=O)CC2)o1 | 70.9 |  | 610 |  |  |  |  |
| O=C1SC2(CCCC2)C(=O)N1CCCCN1CCN(c2ncccc2[N+](=O)[O-])CC1 | 25.3 | 43.6 | 69 |  |  | 34.1 | 44.2 |
| N#Cc1cccnc1N1CCN(CCCCN2C(=O)SC3(CCCC3)C2=O)CC1 | 38 | 29.3 | 34 |  |  | 35 | 9.2 |
| CO/N=C\c1cccnc1N1CCN(CCCCN2C(=O)SC3(CCCC3)C2=O)CC1 | 71.3 |  | 428 | inactive |  | 67.4 |  |
| O=C1SC2(CCCC2)C(=O)N1CCCCN1CCN(c2ncccc2Cl)CC1 | 66.9 | 50 | 160 | inactive |  | 19.9 |  |
| O=Cc1cccnc1N1CCN(CCCCN2C(=O)SC3(CCCC3)C2=O)CC1 | 60 | 48 | 130 |  |  | 9.6 | 12.9 |
| O=C1CSC(=O)N1CCCCN1CCN(c2ccccn2)CC1 | 45.8 |  | > 1000 | inactive |  |  |  |
| O=C1SC2(CCCC2)C(=O)N1CCCCN1CCN(c2ccccn2)CC1 | 20.8 | > 95 | 620 | inactive |  |  |  |
| COC(=O)c1cccnc1N1CCN(CCCCN2C(=O)SC3(CCCC3)C2=O)CC1 | 29.8 | 50.2 | 138 |  |  | 7.8 | 5.05 |
| CC1(C)CC(=O)N(CCCCN2CCN(c3ncccc3Cl)CC2)C(=O)C1 | 25.9 |  | 360 |  | 104 |  |  |
| CN1CCN(C2=Nc3cc(Cl)ccc3Nc3ccccc32)CC1 |  |  |  | inactive |  |  |  |
| O=C1SC2(CCCC2)C(=O)N1CCCCN1CCN(c2ncccc2-c2ccccc2)CC1 | > 100 | > 100 | 236 | inactive |  |  |  |

Reference: ChEMBL document CHEMBL1124059, “Atypical antipsychotic agents: patterns of activity in a series of 3-substituted 2-pyridinyl-1-piperazine derivatives” (J Med Chem, 1988)
